Experimental data published in patent US11458123B2 (Arvinas, Inc., priority 2016, dated 2022).

System: tau protein
Assay: Tau protein in vitro degradation assay (Western blot, Tau-13 antibody)
Type: cell-based, human
Details: SK-N-SH cells, 72 hours of incubation; for Degradation activity* (highest amount of degradation observed at any dosage; tau protein remaining) / Degradation activity (tau protein remaining; highest amount of degradation observed at any dosage): tested at 300 nM, 100 nM, 33 nM and 11 nM, Western blot, Tau-13 antibody; for Activity* (highest amount of degradation observed at any dosage, as tau protein remaining): tested at 1000 nM, 300 nM and 100 nM
Outline: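 Tau degradation read by Tau-13 Western blot (detects all human tau forms) of SDS-PAGE-resolved lysates from SK-N-SH cells. Cells were plated at least 18 h before 72 h exposure to PROTACs at either 1000/300/100 nM or 300/100/33/11 nM.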

Structure (SMILES)	Degradation activity* (highest amount of degradation observed at any dosage; tau protein remaining)	Activity* (highest amount of degradation observed at any dosage, as tau protein remaining)	other results
Cn1c2ccncc2c2ccc(-c3ccc(O[C@H]4C[C@H](Oc5cccc(OCCCCCCOc6ccc7c(c6)C(=O)N(C6CCC(=O)NC6=O)C7=O)n5)C4)nc3)cc21 (stereo partly shown) [Compound 108, 2-(2,6-dioxopiperidin-3-yl)-5-((6-((6-((1r,3r)-3-((5-(5-methyl-5H-pyrido[4,3-b]indol-7-yl)pyridin-2-yl)oxy)cyclobutoxy)pyridin-2-yl)oxy)hexyl)oxy)isoindoline-1,3-dione]	C (>80% tau protein remaining after 72 hours of incubation with the test compound)		
Cc1ncsc1-c1ccc(CNC(=O)[C@@H]2C[C@@H](O)CN2C(=O)[C@@H](NC(=O)COCCCOCCCOc2ccc3nc(-c4ccc(N(C)C)cc4)ccc3c2)C(C)(C)C)cc1 [Compound 35, (2S,4R)-1-((S)-2-(2-(3-(3-(2-(4-(dimethylamino)phenyl)quinolin-6-yloxy)propoxy)propoxy)acetamido)-3,3-dimethylbutanoyl)-4-hydroxy-N-(4-(4-methylthiazol-5-yl)benzyl)pyrrolidine-2-carboxamide]		C (>80% tau protein remaining after 72 hours of incubation with the test compound)	
Cn1c2ccncc2c2ccc(-c3ccc(O[C@H]4C[C@H](OC5CCN(c6cccc(CCCOc7ccc8c(c7)C(=O)N(C7CCC(=O)NC7=O)C8=O)c6)CC5)C4)nc3)cc21 (stereo partly shown) [Compound 205, 2-(2,6-dioxopiperidin-3-yl)-5-(3-(3-(4-((1r,3r)-3-((5-(5-methyl-5H-pyrido[4,3-b]indol-7-yl)pyridin-2-yl)oxy)cyclobutoxy)piperidin-1-yl)phenyl)propoxy)isoindoline-1,3-dione]			Degradation activity (tau protein remaining; highest amount of degradation observed at any dosage): A (≤50% tau protein remaining after 72 hours of incubation with the test compound)
Cn1c2ccncc2c2ccc(-c3ccc(OCCOCCOCCOCCCCC(Oc4ccc5c(c4)C(=O)N(C4CCC(=O)NC4=O)C5=O)C(F)(F)F)nc3)cc21 (stereo not shown) [Compound 129, 2-(2,6-dioxopiperidin-3-yl)-5-((1,1,1-trifluoro-6-(2-(2-(2-((5-(5-methyl-5H-pyrido[4,3-b]indol-7-yl)pyridin-2-yl)oxy)ethoxy)ethoxy)ethoxy)hexan-2-yl)oxy)isoindoline-1,3-dione]	C (>80% tau protein remaining after 72 hours of incubation with the test compound)		
Cn1c2ccncc2c2ccc(-c3ccc(OCCCCCOCCCCCCC4CN(c5ccc6c(c5)C(=O)N(C5CCC(=O)NC5=O)C6=O)C4)nc3)cc21 (stereo not shown) [Compound 133, 2-(2,6-dioxopiperidin-3-yl)-5-(3-(6-((5-((5-(5-methyl-5H-pyrido[4,3-b]indol-7-yl)pyridin-2-yl)oxy)pentyl)oxy)hexyl)azetidin-1-yl)isoindoline-1,3-dione]	A (≤50% tau protein remaining after 72 hours of incubation with the test compound)		
Cn1c2ccncc2c2ccc(-c3ccc(O[C@H]4C[C@H](OCCCCCN5CCN(c6ccc7c(c6)C(=O)N(C6CCC(=O)NC6=O)C7=O)CC5)C4)nc3)cc21 (stereo partly shown) [Compound 68, 2-(2,6-dioxopiperidin-3-yl)-5-(4-(5-((1r,3r)-3-((5-(5-methyl-5H-pyrido[4,3-b]indol-7-yl)pyridin-2-yl)oxy)cyclobutoxy)pentyl)piperazin-1-yl)isoindoline-1,3-dione]	C (>80% tau protein remaining after 72 hours of incubation with the test compound)		
O=C1CCC(N2C(=O)c3ccc(OCCCCCN4CCN(CCOCCCc5ccc(-c6ccc7c(c6)[nH]c6ccncc67)cn5)CC4)cc3C2=O)C(=O)N1 (stereo not shown) [Compound 52, 5-((5-(4-(2-(3-(5-(5H-pyrido[4,3-b]indol-7-yl)pyridin-2-yl)propoxy)ethyl)piperazin-1-yl)pentyl)oxy)-2-(2,6-dioxopiperidin-3-yl)isoindoline-1,3-dione]	C (>80% tau protein remaining after 72 hours of incubation with the test compound)		
CN(C)c1ccc(-c2ccc3cc(OCC(O)COCCOCCOCCOCCNc4cccc5c4C(=O)N(C4CCC(=O)NC4=O)C5=O)ccc3n2)cc1 (stereo not shown) [Compound 45, 4-(15-(2-(4-(dimethylamino)phenyl)quinolin-6-yloxy)-14-hydroxy-3,6,9,12-tetraoxapentadecylamino)-2-(2,6-dioxopiperidin-3-yl)isoindoline-1,3-dione]		C (>80% tau protein remaining after 72 hours of incubation with the test compound)	
Cc1ncsc1-c1ccc(CNC(=O)[C@@H]2C[C@@H](O)CN2C(=O)[C@@H](NC(=O)COCCOCCOCCOc2ccc3nc(-c4ccc(N(C)C)cc4)ccc3c2)C(C)(C)C)cc1 [Compound 29, (2S,4R)-1-((S)-2-tert-butyl-14-(2-(4-(dimethylamino)phenyl)quinolin-6-yloxy)-4-oxo-6,9,12-trioxa-3-azatetradecane)-4-hydroxy-N-(4-(4-methylthiazol-5-yl)benzyl)pyrrolidine-2-carboxamide]		C (>80% tau protein remaining after 72 hours of incubation with the test compound)	
Cc1ncsc1-c1ccc([C@H](C)NC(=O)[C@@H]2C[C@@H](O)CN2C(=O)[C@@H](NC(=O)COCCCCOc2ccc3nc(-c4ccc(N(C)C)cc4)ccc3c2)C(C)(C)C)cc1 [Compound 34, (2S,4R)-1-((S)-2-(2-(4-(2-(4-(dimethylamino)phenyl)quinolin-6-yloxy)butoxy)acetamido)-3,3-dimethylbutanoyl)-4-hydroxy-N—((S)-1-(4-(4-methylthiazol-5-yl)phenyl)ethyl)pyrrolidine-2-carboxamide]		C (>80% tau protein remaining after 72 hours of incubation with the test compound)	
Cc1ncoc1-c1ccc(CNC(=O)[C@@H]2C[C@@H](O)CN2C(=O)[C@@H](NC(=O)COCCOCCOCCN2CCN(c3ccn4c(n3)nc3ccccc34)CC2)C(C)(C)C)cc1 [Compound 11, (2S,4R)-1-((S)-14-(4-(benzo[4,5]imidazo[1,2-a]pyrimidin-2-yl)piperazin-1-yl)-2-(tert-butyl)-4-oxo-6,9,12-trioxa-3-azatetradecanoyl)-4-hydroxy-N-(4-(4-methyloxazol-5-yl)benzyl)pyrrolidine-2-carboxamide]		C (>80% tau protein remaining after 72 hours of incubation with the test compound)	
O=C1CCC(N2C(=O)c3ccc(N4CC(OCCCOCCCO[C@H]5C[C@H](Oc6ccc(-c7ccc8c(c7)[nH]c7ccncc78)cn6)C5)C4)cc3C2=O)C(=O)N1 (stereo partly shown) [Compound 182, 5-(3-(3-(3-((1r,3r)-3-((5-(5H-pyrido[4,3-b]indol-7-yl)pyridin-2-yl)oxy)cyclobutoxy)propoxy)propoxy)azetidin-1-yl)-2-(2,6-dioxopiperidin-3-yl)isoindoline-1,3-dione]			Degradation activity (tau protein remaining; highest amount of degradation observed at any dosage): A (≤50% tau protein remaining after 72 hours of incubation with the test compound)
Cc1ncsc1-c1ccc(CNC(=O)[C@@H]2C[C@@H](O)CN2C(=O)[C@@H](NC(=O)COCCCCCOc2ccc3nc(-c4ccc(N(C)C)cc4)ccc3c2)C(C)(C)C)cc1 [Compound 37, (2S,4R)-1-((S)-2-(2-(5-(2-(4-(dimethylamino)phenyl)quinolin-6-yloxy)pentyloxy)acetamido)-3,3-dimethylbutanoyl)-4-hydroxy-N-(4-(4-methylthiazol-5-yl)benzyl)pyrrolidine-2-carboxamide]		C (>80% tau protein remaining after 72 hours of incubation with the test compound)	
Cc1ncsc1-c1ccc([C@H](C)NC(=O)[C@@H]2C[C@@H](O)CN2C(=O)[C@@H](NC(=O)COCCOCCOCCOCCCOc2ccc3nc(-c4ccc(N(C)C)cc4)ccc3c2)C(C)(C)C)cc1 [Compound 39, (2S,4R)-1-((S)-2-tert-butyl-18-(2-(4-(dimethylamino)phenyl)quinolin-6-yloxy)-4-oxo-6,9,12,15-tetraoxa-3-azaoctadecane)-4-hydroxy-N—((S)-1-(4-(4-methylthiazol-5-yl)phenyl)ethyl)pyrrolidine-2-carboxamide]		C (>80% tau protein remaining after 72 hours of incubation with the test compound)	
Cn1c2ccncc2c2ccc(-c3ccc(OC4CN(C(=O)C56CC(CCCCCCCOc7ccc8c(c7)C(=O)N(C7CCC(=O)NC7=O)C8=O)(C5)C6)C4)nc3)cc21 (stereo not shown) [Compound 184, 2-(2,6-dioxopiperidin-3-yl)-5-((7-(3-(3-((5-(5-methyl-5H-pyrido[4,3-b]indol-7-yl)pyridin-2-yl)oxy)azetidine-1-carbonyl)bicyclo[1.1.1]pentan-1-yl)heptyl)oxy)isoindoline-1,3-dione]			Degradation activity (tau protein remaining; highest amount of degradation observed at any dosage): A (≤50% tau protein remaining after 72 hours of incubation with the test compound)
Cc1ncsc1-c1ccc([C@H](C)NC(=O)[C@@H]2C[C@@H](O)CN2C(=O)[C@@H](NC(=O)COCCOCCOCCOCCOCCOc2ccc(-c3ccc4c(c3)[nH]c3ccncc34)cn2)C(C)(C)C)cc1 [Compound 121, (2S,4R)-1-((S)-20-((5-(5H-pyrido[4,3-b]indol-7-yl)pyridin-2-yl)oxy)-2-(tert-butyl)-4-oxo-6,9,12,15,18-pentaoxa-3-azaicosanoyl)-4-hydroxy-N—((S)-1-(4-(4-methylthiazol-5-yl)phenyl)ethyl)pyrrolidine-2-carboxamide]	B (≤80% and >50% tau protein remaining after 72 hours of incubation with the test compound)		
